SMILES strings stand for the structures. Values joined by “and” are separate entries in the source; they are usually repeats but may differ in a detail not shown here. Equal entries are not always repeated. “Also recorded” adds a separate entry of the source. Structures can show the parent of a compound that is named as a salt. Where two headings read alike, the source gives them in different places. Some results are limits rather than exact numbers.

These results are taken from article PMC3907829, “Characterization of an Invertebrate-Type Dopamine Receptor of the American Cockroach, Periplaneta americana” (International Journal of Molecular Sciences, 2014).

In assay [1] the target is T1, PeaDOP2A receptor (Periplaneta americana, UniProt V6DNI7). The experiment in a line: cAMP production in HEK 293 cells stably expressing PeaDOP2A. The conditions noted are these: for effect on [cAMP]i (agonist, in words): ligand 10 μM; for effect on dopamine-induced increase in [cAMP]i (antagonist, in words): co-incubation with dopamine. It is filed as cell-based. Here is the method: Stably transfected cells were selected in the presence of the antibiotic G418 at 0.8 mg/mL. Isolated foci were propagated and analyzed for the expression of PeaDOP2A/B-HA by immunocytochemistry and Western blot analysis with a commercial anti-HA antibody (anti-HA high affinity; Roche, Penzberg, Germany).
T1 sequence (V6DNI7 entry or part of it): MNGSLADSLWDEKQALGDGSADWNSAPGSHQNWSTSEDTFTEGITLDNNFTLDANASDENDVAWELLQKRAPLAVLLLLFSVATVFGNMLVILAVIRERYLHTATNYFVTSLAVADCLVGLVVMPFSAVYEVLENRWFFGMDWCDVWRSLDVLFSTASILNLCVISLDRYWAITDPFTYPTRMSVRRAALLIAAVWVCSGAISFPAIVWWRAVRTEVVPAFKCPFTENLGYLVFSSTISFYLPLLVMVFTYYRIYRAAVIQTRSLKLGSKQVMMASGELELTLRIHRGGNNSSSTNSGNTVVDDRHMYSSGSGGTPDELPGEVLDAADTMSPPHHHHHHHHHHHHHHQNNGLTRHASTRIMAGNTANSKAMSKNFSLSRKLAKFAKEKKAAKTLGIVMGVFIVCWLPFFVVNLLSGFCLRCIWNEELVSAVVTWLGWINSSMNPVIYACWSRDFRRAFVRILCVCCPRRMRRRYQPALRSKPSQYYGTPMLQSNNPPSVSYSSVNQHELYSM
On the technique in general: Changes in cAMP serve as a functional read-out for many G protein-coupled receptors.

The test system of assay [2] is PeaDOP2B receptor. The experiment in a line: cAMP production in HEK 293 cells stably expressing PeaDOP2B. It is filed as cell-based, Periplaneta americana. The conditions noted are these: for change of intracellular cAMP level: biogenic amines 10 μM. The method, then:
Approximately 8 μg pcPeadop2A/B-HA vector was separately introduced into exponentially growing HEK 293 cells (~4 × 10^5 cells per 5 cm Petri dish; Greiner, Frickenhausen, Germany) by a modified calcium phosphate method. Stably transfected cells were selected in the presence of the antibiotic G418 at 0.8 mg/mL. Isolated foci were propagated and analyzed for the expression of PeaDOP2A/B-HA by immunocytochemistry and Western blot analysis with a commercial anti-HA antibody (anti-HA high affinity; Roche, Penzberg, Germany).

The subject of assay [3] is non-transfected HEK 293 cells. The conditions noted are these: dopamine 1 nM to 10 μM.
Experimental: Assays to determine the ability of PeaDOP2A/B-HA receptors to stimulate adenylyl cyclase activity were performed as described earlier [108]. PeaDOP2A/B-expressing cells were grown in minimal essential medium with GlutaMAX™ (Invitrogen, Karlsruhe, Germany), 10% (v/v) fetal bovine serum, 1% (v/v) non-essential amino acids, and antibiotics (all from Invitrogen, Karlsruhe, Germany). Cells were incubated with ligands for 30 min at 37 °C in the presence of the phosphodiesterase inhibitor isobutylmethylxanthine (IBMX; Sigma, Taufkirchen, Germany; final concentration 100 μM) and lysed by adding 0.5 mL ice-cold ethanol. After 1 h at 4 °C, the lysate was transferred to a reaction tube and lyophilized. The amount of cAMP produced was determined by using the TRK 432 cyclic AMP assay kit (GE Healthcare, Freiburg, Germany).
For assay [4], the target named is T1, PeaDOP2A receptor. Conditions: PeaDOP2A cell line.
Assay [5] deals with PeaDOP2B receptor. The conditions noted are these: PeaDOP2B cell line.
The target of assay [6] is D. melanogaster DOP2 receptor. Conditions: read-out: EC50 for dopamine-induced cAMP increase; cited from earlier work.
In assay [7] the target is A. mellifera DOP2 receptor. Conditions: read-out: EC50 for dopamine-induced cAMP increase; cited from earlier work.
The target of another assay is C. felis DOP2 receptor. Conditions: read-out: EC50 for dopamine-induced cAMP increase; cited from earlier work.
In assay [8] the target is Bombyx mori DOP2 receptor. Conditions: read-out: EC50 for dopamine-induced cAMP increase; cited from earlier work.
[9] abbreviates: agonist, HEK 293 cells expressing PeaDOP2A, 30 min, 37 °C, 100 μM IBMX, read-out: EC50 for increasing [cAMP]i.
Where [10] appears, read: agonist, log of molar EC50 (negative values), PeaDOP2A-expressing HEK 293 cells.
The mark [11] stands for this setting: IC50 for blocking dopamine (300 nM)-induced cAMP increase, antagonist, in the presence of 300 nM dopamine, PeaDOP2A-expressing HEK 293 cells.
Where [12] appears, read: log IC50, antagonist, log of molar IC50 (negative values), in the presence of 300 nM dopamine.
Where [13] appears, read: antagonist, in the presence of 300 nM dopamine, PeaDOP2A-expressing HEK 293 cells, read-out: IC50 for blocking dopamine (300 nM)-induced cAMP increase.

Consider `NCC(O)c1ccc(O)cc1` (racemic) [octopamine, (±)-octopamine hydrochloride], for which the “effect on [cAMP]i (agonist, in words)” value at PeaDOP2A receptor [1] (PeaDOP2A-expressing cells) is reported as “no effect”. Also, the “change of intracellular cAMP level” value in the assay with PeaDOP2B receptor [2] was “None of the biogenic amines induced a change”.

Take `NCCc1c[nH]cn1` [histamine, histamine dihydrochloride]: the “effect on [cAMP]i (agonist, in words)” value at PeaDOP2A receptor [1] (PeaDOP2A-expressing cells) is given as “no effect”. The “change of intracellular cAMP level” value with PeaDOP2B receptor [2] is given as “None of the biogenic amines induced a change”.

As to `C=CCN1CCc2c(cc(O)c(O)c2Cl)C(c2ccccc2)C1` (racemic) [6-chloro-APB, (±)-6-Chloro-7,8-dihydroxy-3-allyl-1-phenyl-2,3,4,5-tetrahydro-1H-3-benzazepine], the “effect on [cAMP]i (agonist, in words)” value on PeaDOP2A receptor [1] (PeaDOP2A-expressing cells) was “lead to an increase in [cAMP]i; also recorded: mimicked”. Besides, at PeaDOP2A receptor [1] (setting [9]), the concentration giving a half-maximal response (EC50) (as a rule, the concentration needed to bring the measured effect to its halfway point) is 382 nM. This molecule yielded a logEC50 on PeaDOP2A receptor [1] (setting [10]) of −6.418.

Consider `CN(C)CCCN1c2ccccc2Sc2ccc(Cl)cc21` [chlorpromazine, Chlorpromazine hydrochloride], for which the half-inhibitory concentration (IC50) on PeaDOP2A receptor [1] (setting [11]) and on PeaDOP2A receptor [1] (setting [12]) was 2.7 nM in each case. In addition, the “effect on dopamine-induced increase in [cAMP]i (antagonist, in words)” value (shortened to “effect on dopamine-induced increase”) at PeaDOP2A receptor [1] (PeaDOP2A-expressing cells) was “able to counteract the dopamine-induced increase in [cAMP]i fully; also recorded: abolished”.

Turning to `Cl.Cl.OCCN1CCN(CCC=C2c3ccccc3Sc3ccc(C(F)(F)F)cc32)CC1` (mixture of isomers) [flupentixol, cis(Z)-flupentixol dihydrochloride], on PeaDOP2A receptor [1] (10 μM antagonist in the presence of 300 nM dopamine, basal level […]), the “cAMP as percentage of the value with 300 nM dopamine (=100%)” value is reported as 7.0%. The “effect on dopamine-induced increase” value on PeaDOP2A receptor [1] (PeaDOP2A-expressing cells) was “able to counteract the dopamine-induced increase in [cAMP]i fully”; on PeaDOP2A receptor [1] (PeaDOP2A-expressing cells, listed as cis(Z)-flupentixol), “abolished”. Further, the “log IC50” value on PeaDOP2A receptor [1] (antagonist, log of molar IC50 (negative values), in the presence of 300 nM dopamine) is on record as −8.189.

As to `CC(C)C[C@H]1C(=O)N2CCC[C@H]2[C@]2(O)O[C@](NC(=O)[C@@H]3C=C4c5cccc6[nH]c(Br)c(c56)C[C@H]4N(C)C3)(C(C)C)C(=O)N12` [bromocriptine, bromocriptine mesylate], the “effect on [cAMP]i (agonist, in words)” value on PeaDOP2A receptor [1] (PeaDOP2A-expressing cells) was “fails to increase [cAMP]i”.

`NCCc1ccc(O)c(O)c1` [dopamine, dopamine hydrochloride]: the cAMP production at PeaDOP2A receptor [1] (10 μM ligand, PeaDOP2A-expressing cells) amounted to 300 pmol cAMP/mg protein. Besides, the EC50 is 160 nM and 163 nM at PeaDOP2A receptor [1] (EC50 for increasing [cAMP]i, agonist, HEK 293 cells expressing PeaDOP2A, 30 min, 37 °C, 100 μM IBMX); 166 nM and 163 nM at PeaDOP2A receptor [1] (logEC50, agonist, log of molar EC50 (negative values), PeaDOP2A-expressing HEK 293 cells); 350 nM in assay [6]; 2200 nM in assay [7]; 2400 nM at C. felis DOP2 receptor; 1300 nM in assay [8]. In addition, the “concentration for maximal stimulation of cAMP synthesis” value on PeaDOP2A receptor [1] (PeaDOP2A-expressing cells, dose range 1 nM to 10 μM) was no less than 1 µM. Moreover, the “effect on [cAMP]i (agonist, in words)” value on PeaDOP2A receptor [1] (PeaDOP2A-expressing cells) was “leads to an increase in [cAMP]i”. Further, the “change of intracellular cAMP level” value in the assay with PeaDOP2B receptor [2] was “None of the biogenic amines induced a change”. In addition, the “effect on [cAMP]i, dose-response” value was “None of the dopamine concentrations showed an effect; also recorded: does not affect [cAMP]i” in the assay with PeaDOP2B receptor [2] (dopamine 1 nM to 10 μM) and “None of the dopamine concentrations showed an effect” in assay [3]. For the same molecule, the “change in [Ca2+]i upon dopamine incubation” value on PeaDOP2A receptor [4] and with PeaDOP2B receptor [5] was “Neither PeaDOP2 receptor cause changes in [Ca^2+]i” each time.

As for `CN1CCc2cc(Cl)c(O)cc2[C@@H](c2ccccc2)C1` [SCH 23390, R(+)-SCH 23390 hydrochloride], the “effect on dopamine-induced increase” value on PeaDOP2A receptor [1] (PeaDOP2A-expressing cells) is “able to counteract the dopamine-induced increase in [cAMP]i fully”. In addition, the IC50 (commonly the concentration that inhibits the measured activity by half) on PeaDOP2A receptor [1] (setting [13]) is 1790 nM; at PeaDOP2A receptor [1] (antagonist, log of molar IC50 (negative values), in the presence of 300 nM dopamine, read-out: log IC50 (converted)) it was 1790 nM.

On to `NCCc1ccc(O)cc1` [tyramine, tyramine hydrochloride], for which the “effect on [cAMP]i (agonist, in words)” value on PeaDOP2A receptor [1] (PeaDOP2A-expressing cells) is reported as “no effect”. Also, the “change of intracellular cAMP level” value with PeaDOP2B receptor [2] is “None of the biogenic amines induced a change”.

Turning to `Cl.NCCc1c[nH]c2ccc(O)cc12` [serotonin, 5-hydroxytryptamine hydrochloride], on PeaDOP2A receptor [1] (PeaDOP2A-expressing cells), the “effect on [cAMP]i (agonist, in words)” value is recorded as “no effect”. For the same molecule, the “change of intracellular cAMP level” value with PeaDOP2B receptor [2] is recorded as “None of the biogenic amines induced a change”.

In the case of `CN1CCc2cccc3c2[C@H]1Cc1ccc(O)c(O)c1-3` [apomorphine, apomorphine hydrochloride hemihydrate], at PeaDOP2A receptor [1] (PeaDOP2A-expressing cells), the “effect on [cAMP]i (agonist, in words)” value is “lead to an increase in [cAMP]i”.

`Oc1cc2c(cc1O)[C@@H](c1ccccc1)CNCC2` [SKF 38393, R(+)-SKF 38393 hydrochloride]: on PeaDOP2A receptor [1] (PeaDOP2A-expressing cells), the “effect on [cAMP]i (agonist, in words)” value is given as “does not show any effect”.

For the molecule `OCCN1CCN(CC/C=C2/c3ccccc3Sc3ccc(C(F)(F)F)cc32)CC1` [flupentixol, cis(Z)-flupentixol dihydrochloride], the 50% inhibitory concentration (IC50) on PeaDOP2A receptor [1] (setting [13]) was found to be 6.5 nM.

For `NC1CCc2cc(O)c(O)cc2C1` (racemic) [6,7-ADTN, (±)-2-amino-6,7-dihydroxy-1,2,3,4-tetrahydronaphthalene], the “effect on [cAMP]i (agonist, in words)” value at PeaDOP2A receptor [1] (PeaDOP2A-expressing cells) was “lead to an increase in [cAMP]i; also recorded: mimicked”. Also, the concentration giving a half-maximal response (EC50) at PeaDOP2A receptor [1] (setting [9]) amounted to 76.4 nM. Besides, the logEC50 on PeaDOP2A receptor [1] (setting [10]) is recorded as −7.117.

Turning to `CC(C)(C)[C@]1(O)CCN2C[C@H]3c4ccccc4CCc4cccc(c43)[C@@H]2C1` [butaclamol, S(+)-butaclamol hydrochloride], the IC50 at PeaDOP2A receptor [1] (setting [11]) and at PeaDOP2A receptor [1] (setting [12]) was 326 nM each time. Besides, the “effect on dopamine-induced increase” value on PeaDOP2A receptor [1] (PeaDOP2A-expressing cells) is “able to counteract the dopamine-induced increase in [cAMP]i fully”.
